For 19 compounds, IC50 results are on record in patent US9359339B2, “Glucagon receptor antagonist compounds, compositions containing such compounds and methods of use” (Merck Sharp & Dohme Corp., priority 2009, dated 2016).

In general, pIC50 refers to −log10 of the IC50, conventionally taken in molar units. Low readings indicate a high IC50, high ones a low IC50.

Molecules are shown by their SMILES. pIC50: −log10 of the molar value.

Chain of human glucagon receptor (P47871 26-477): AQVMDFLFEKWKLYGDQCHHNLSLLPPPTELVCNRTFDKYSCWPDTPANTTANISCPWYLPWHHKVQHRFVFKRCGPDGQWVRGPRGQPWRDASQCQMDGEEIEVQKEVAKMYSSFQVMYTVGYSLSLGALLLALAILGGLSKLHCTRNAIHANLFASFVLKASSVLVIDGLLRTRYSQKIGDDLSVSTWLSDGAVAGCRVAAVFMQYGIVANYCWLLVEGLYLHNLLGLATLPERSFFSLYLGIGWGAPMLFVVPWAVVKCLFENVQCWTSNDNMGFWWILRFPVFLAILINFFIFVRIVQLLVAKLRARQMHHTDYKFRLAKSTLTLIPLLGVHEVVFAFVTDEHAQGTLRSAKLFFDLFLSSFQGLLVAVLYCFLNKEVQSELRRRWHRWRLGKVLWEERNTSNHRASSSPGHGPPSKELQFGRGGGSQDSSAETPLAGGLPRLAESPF

The assay concerns the target human glucagon receptor (Homo sapiens (Human), UniProt P47871). Put plainly: Glucagon Receptor Binding Assay (125I-glucagon SPA, CHO cell membranes). To be noted: inhibition of 125I-Glucagon binding to membranes of CHO cells expressing cloned human glucagon receptor; more active isomer. As for the experimental part: Glucagon Receptor Binding Assay
A stable CHO (Chinese hamster ovary) cell line expressing cloned human glucagon receptor was maintained as described (Chicchi, et. al. J Biol Chem 272, 7765-9 (1997); Cascieri, et. al. J Biol Chem 274, 8694-7 (1999)). To determine antagonistic binding affinity of compounds, 0.001-0.003 mg of cell membranes from these cells were pre-incubated with 0.100 mg WGA-coated PVT SPA beads (Amersham) for 20 minutes at room temperature in 25 μL of a buffer containing 50 mM Tris-HCl (pH 7.5), 5 mM MgCl2, 2 mM EDTA, 0.1% BSA and 3% glycerol in Costar 384 well plates with clear bottoms (#3706). Next, 25 μL of ^125I-Glucagon (New England Nuclear, MA) (1×10^−14 mol per well) and either 1 μL solutions of test compounds or 0.001 mM unlabeled glucagon or DMSO were added and mixed. After 4-12 hours incubation at room temperature, the radioactivity bound to the cell membranes was determined in a radioactive emission detection counter (Wallac-Microbeta). Data were analyzed using the Data Analyzer software program of Merck & Co., Inc. The IC50 values were calculated using non-linear regression analysis assuming single-site competition.
`CCC[C@H](c1ccc(C(=O)NCCC(=O)O)cc1)C(c1ccc(Cl)cc1)c1csc2c(C#N)cc(Cl)cc12` (stereo partly drawn) [Example 1, N-(4-{(1S)-1-[(5-CHLORO-7-CYANO-1-BENZOTHIEN-3-YL)(4-CHLOROPHENYL)METHYL]BUTYL}BENZOYL)-β-ALANINE] gave a negative-log IC50 (pIC50) of 8.21. `CCCC[C@H](c1ccc(C(=O)NCCC(=O)O)cc1)C(c1ccc(Cl)cc1)c1csc2c(-c3ccnn3C)cc(F)cc12` (stereo partly drawn) [Example 2, N-[4-((1S)-1-{(4-CHLOROPHENYL)[5-FLUORO-7-(1-METHYL-1H-PYRAZOL-5-YL)-1-BENZOTHIEN-3-YL]METHYL}PENTYL)BENZOYL]-β-ALANINE]: the pIC50 was 8.33. Next, `CCC[C@H](c1ccc(C(=O)Nc2nnn[nH]2)cc1)C(c1ccc(Cl)cc1)c1csc2c(Br)cc(C)cc12` (stereo partly drawn) [Example 3, 4-{(1S)-1-[(7-BROMO-5-METHYL-1-BENZOTHIEN-3-YL)(4-CHLOROPHENYL)METHYL]BUTYL}-N-1H-TETRAZOL-5-YLBENZAMIDE]: 8.64; `CCC[C@H](c1ccc(C(=O)NCc2nn[nH]n2)cc1)C(c1ccc(Cl)cc1)c1csc2c(Br)cc(C)cc12` (stereo partly drawn) [Example 4, 4-{(1S)-1-[(7-BROMO-5-METHYL-1-BENZOTHIEN-3-YL)(4-CHLOROPHENYL)METHYL]BUTYL}-N-(2H-TETRAZOL-5-YLMETHYL)BENZAMIDE]: 8.60; `CCC[C@H](c1ccc(C(=O)NCCC(=O)O)cc1)C(c1ccc(Cl)cc1)c1csc2c(C)cc(Cl)cc12` (stereo partly drawn) [Example 6, N-(4-{(1S)-1-[(5-CHLORO-7-METHYL-1-BENZOTHIEN-3-YL)(4-CHLOROPHENYL)METHYL]BUTYL}BENZOYL)-β-ALANINE]: 7.55.

`CCC[C@H](c1ccc(C(=O)NCCC(=O)O)cc1)C(c1ccc(Cl)cc1)c1c(C)sc2ccccc12` (stereo partly drawn) [Example 8, N-(4-{(1S)-1-[(2-METHYL-1-BENZOTHIEN-3-YL)(4-CHLOROPHENYL)METHYL]BUTYL}BENZOYL)-β-ALANINE]: the pIC50 is 8.66.

Take `CCC[C@H](c1ccc(C(=O)NCCC(=O)O)cc1)C(c1ccc(Cl)cc1)c1csc2c(C#N)cc(F)cc12` (stereo partly drawn) [Example 13, N-(4-{(1S)-1-[(5-FLUORO-7-CYANO-1-BENZOTHIEN-3-YL)(4-CHLOROPHENYL)METHYL]BUTYL}BENZOYL)-β-ALANINE]: the pIC50 was 8.96. Next, `CCC[C@H](c1ccc(C(=O)NCCC(=O)O)cc1)C(c1ccc(Cl)cc1)c1csc2c(C#N)cc(C)cc12` (stereo partly drawn) [Example 14, N-(4-{(1S)-1-[(5-METHYL-7-CYANO-1-BENZOTHIEN-3-YL)(4-CHLOROPHENYL)METHYL]BUTYL}BENZOYL)-β-ALANINE]: 8.89; `CCC[C@H](c1ccc(C(=O)NCCC(=O)O)cc1)C(c1ccc(Cl)cc1)c1csc2c(C#N)cc(C(F)(F)F)cc12` (stereo partly drawn) [Example 15, N-(4-{(1S)-1-[(5-TRIFLUOROMETHYL-7-CYANO-1-BENZOTHIEN-3-YL)(4-CHLOROPHENYL)METHYL]BUTYL}BENZOYL)-β-ALANINE]: 8.77.

As for `CCC[C@H](c1ccc(C(=O)NCCC(=O)O)cc1)C(c1ccc(Cl)cc1)c1c(C)sc2c(C#N)cc(Cl)cc12` (stereo partly drawn) [Example 19, N-(4-{(1S)-1-[(2-METHYL-5-CHLORO-7-CYANO-1-BENZOTHIEN-3-YL)(4-CHLOROPHENYL)METHYL]BUTYL}BENZOYL)-β-ALANINE], the negative-log IC50 (pIC50) is 8.11. Take `CCC[C@H](c1ccc(C(=O)NCCC(=O)O)cc1)C(c1ccc(Cl)c(Cl)c1)c1csc2c(C#N)cc(Cl)cc12` (stereo partly drawn) [Example 21, N-(4-{(1S)-1-[(5-CHLORO-7-CYANO-1-BENZOTHIEN-3-YL)(3,4-DICHLOROPHENYL)METHYL]BUTYL}BENZOYL)-β-ALANINE]: the pIC50 was 9.15. Next, `CCC[C@H](c1ccc(C(=O)NCCC(=O)O)cc1)C(c1ccc(OC(F)(F)F)cc1)c1csc2c(C#N)cc(C)cc12` (stereo partly drawn) [Example 23, N-(4-{(1S)-1-[(5-METHYL-7-CYANO-1-BENZOTHIEN-3-YL)(4-TRIFLUOROMETHOXYPHENYL)METHYL]BUTYL}BENZOYL)-β-ALANINE]: 9.70.

`CCC[C@H](c1ccc(C(=O)NCCC(=O)O)cc1)C(c1ccc(OC(F)(F)F)cc1)c1csc2c(C#N)cc(Cl)cc12` (stereo partly drawn) [Example 25, N-(4-{(1S)-1-[(5-CHLORO-7-CYANO-1-BENZOTHIEN-3-YL)(4-TRIFLUOROMETHOXYPHENYL)METHYL]BUTYL}BENZOYL)-β-ALANINE]: the pIC50 was 10.00. On to `N#Cc1cc(Cl)cc2c(C(c3ccc(Cl)cc3)[C@H](CCC(F)(F)F)c3ccc(C(=O)NCCC(=O)O)cc3)csc12` (stereo partly drawn) [Example 27, N-(4-{(1S)-1-[(5-CHLORO-7-CYANO-1-BENZOTHIEN-3-YL)(4-CHLOROPHENYL)METHYL]-4,4,4-TRIFLUOROBUTYL}BENZOYL)-β-ALANINE], for which the pIC50 was 9.70. Next, `CCCC[C@H](c1ccc(C(=O)NCCC(=O)O)cc1)C(c1ccc(Cl)cc1)c1csc2c(C#N)cc(Cl)cc12` (stereo partly drawn) [Example 29, N-(4-{(1S)-1-[(5-CHLORO-7-CYANO-1-BENZOTHIEN-3-YL)(4-CHLOROPHENYL)METHYL]PENTYL}BENZOYL)-β-ALANINE]: 9.40. `CCCC[C@H](c1ccc(C(=O)NCCC(=O)O)cc1)C(c1ccc(Cl)cc1)c1csc2c(C#N)cc(Cl)cc12` (stereo partly drawn) [Example 32, N-(4-{(1S)-1-[(5-CHLORO-7-CYANO-1-BENZOTHIEN-3-YL)(4-CHLOROPHENYL)METHYL]-4-METHYLBUTYL}BENZOYL)-β-ALANINE] had a pIC50 of 9.00.

On to `CCC[C@H](c1ccc(C(=O)NCC(F)(F)C(=O)O)cc1)C(c1ccc(Cl)cc1)c1csc2c(Br)cc(C)cc12` (stereo partly drawn) [Example 40, 3-[(4-{(1S)-1-[(5-METHYL-7-BROMO-1-BENZOTHIOPHEN-3-YL)(4-CHLOROPHENYL)METHYL]BUTYL}BENZOYL)AMINO]-2,2-DIFLUOROPROPANOIC ACID], for which the pIC50 is 7.93.

In turn, `CCC[C@H](c1ccc(C(=O)NCCS(=O)(=O)O)cc1)C(c1ccc(Cl)cc1)c1csc2c(Br)cc(C)cc12` (stereo partly drawn) [Example 43, 2-[(4-{(1S)-1-[(5-METHYL-7-BROMO-1-BENZOTHIOPHEN-3-YL)(4-CHLOROPHENYL)METHYL]BUTYL}BENZOYL)AMINO]ETHANE SULFONIC ACID] had a negative logarithm of the IC50 (pIC50) of 8.47.

The compound `CCC[C@H](c1ccc(C(=O)NCCC(=O)O)cc1)C(c1ccc(Cl)cc1)c1sc2ccccc2c1C` (stereo partly drawn) [Example 45, N-[4-((1S)-1-{(4-CHLOROPHENYL)[3-METHYL-1-BENZOTHIEN-2-YL]METHYL}BUTYL)BENZOYL]-β-ALANINE] showed a pIC50 of 8.74.
